Values belong to the compound of their own block, whether it stands above or below them.
What was measured:
PPARα [1] = molecular target: T1, PPARα (Homo sapiens, UniProt Q07869); test: TR-FRET competitive binding assay; also ultrafiltration LC-MS and cell transactivation
T1 construct: gene PPARA
T1 sequence (Q07869 196-468 limits assumed): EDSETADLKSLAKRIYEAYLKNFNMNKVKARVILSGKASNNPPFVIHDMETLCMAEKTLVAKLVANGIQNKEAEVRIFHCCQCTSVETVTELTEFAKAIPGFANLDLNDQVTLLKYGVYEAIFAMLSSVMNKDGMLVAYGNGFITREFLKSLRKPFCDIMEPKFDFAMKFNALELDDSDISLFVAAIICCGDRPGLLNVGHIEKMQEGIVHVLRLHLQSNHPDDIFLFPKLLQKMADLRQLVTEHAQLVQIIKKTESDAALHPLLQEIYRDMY

PPARα [2] = molecular target: T1, PPARα; test: TR-FRET competitive binding assay
PPARγ = molecular target: T2, PPARγ (Homo sapiens, UniProt P37231); test: TR-FRET competitive binding assay
T2 construct: gene PPARG
T2 sequence (P37231 232-505 limits assumed): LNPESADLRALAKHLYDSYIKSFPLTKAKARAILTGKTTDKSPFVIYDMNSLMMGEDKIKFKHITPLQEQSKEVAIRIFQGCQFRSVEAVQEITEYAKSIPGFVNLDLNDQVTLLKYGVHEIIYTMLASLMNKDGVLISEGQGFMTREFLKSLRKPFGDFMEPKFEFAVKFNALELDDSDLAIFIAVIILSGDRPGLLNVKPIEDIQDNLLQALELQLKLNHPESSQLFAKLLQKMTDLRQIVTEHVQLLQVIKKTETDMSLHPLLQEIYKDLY

- IC50 (PPARα [1]): 1180 nM
Compound: COc1ccc(-c2cc(=O)c3c(O)c(OC)c(O)cc3o2)cc1OC [eupatilin]

- IC50 (PPARα [2]): 227 nM
Compound: CCC(=O)NC[C@H](Cc1ccc(OCCc2nc(-c3ccccc3)oc2C)cc1)N/C(C)=C\C(=O)c1ccc(C(F)(F)F)cc1 [GW6471]

Compound: O=C(Nc1ccccc1)c1cc([N+](=O)[O-])ccc1Cl [GW9662]
- IC50 (PPARγ): 24.3 nM

Source: paper PMC6331909, “Identification of Eupatilin from Artemisia argyi as a Selective PPARα Agonist Using Affinity Selection Ultrafiltration LC-MS” (Molecules, 2015)
